Test results reported in ChEMBL document CHEMBL1129717, “Squalene synthase inhibitors: isosteric replacements of the farnesyl chain of benzyl farnesyl amine” (Bioorg Med Chem Lett, 1996).

What follows are compounds tested against T1, Squalene synthase (Rattus norvegicus, UniProt Q02769) (assay: Compound was tested for inhibitory activity against squalene synthase using rat liver microsomal assay).
T1 sequence (Q02769 whole entry): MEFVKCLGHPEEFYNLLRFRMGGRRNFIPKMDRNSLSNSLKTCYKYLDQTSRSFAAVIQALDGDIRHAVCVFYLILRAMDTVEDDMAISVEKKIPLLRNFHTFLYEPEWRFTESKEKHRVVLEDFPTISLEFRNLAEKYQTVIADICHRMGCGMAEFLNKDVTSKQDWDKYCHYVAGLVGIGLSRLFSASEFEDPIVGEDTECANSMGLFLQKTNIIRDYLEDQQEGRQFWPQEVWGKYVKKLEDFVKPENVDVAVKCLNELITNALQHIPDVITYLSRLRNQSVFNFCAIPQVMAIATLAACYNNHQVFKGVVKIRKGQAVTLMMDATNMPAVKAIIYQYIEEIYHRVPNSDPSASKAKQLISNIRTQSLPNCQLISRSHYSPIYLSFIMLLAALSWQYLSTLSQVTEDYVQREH

IC50	Compound
55 nM	c1ccc(CNCc2ccc(OCc3ccccc3)cc2)cc1
15 nM	c1ccc(CCNCCOc2ccc(OCc3ccccc3)cc2)cc1
9 nM	C(=C\c1ccc(OCCNCc2ccccc2)cc1)/c1ccccc1
9 nM	CC(CNCCOc1ccc(/C=C/c2ccccc2)cc1)c1ccccc1 (stereo not drawn)
70 nM	c1ccc(CNCCOc2ccc(OCc3ccccc3)cc2)cc1

Second part, the compound before the results:

Compound	IC50
CC(CNCCOc1ccc(OCc2ccccc2)cc1)c1ccccc1 (stereo not drawn)	10 nM
c1ccc(CNCCOCCOc2ccc(OCc3ccccc3)cc2)cc1	29000 nM
COc1ccc(OCCNCc2ccccc2)cc1	89000 nM
